Results published in PubChem BioAssay (NCI).
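Interpolation was linear, between the two tested concentrations surrounding the appropriate level; five concentrations were tested over 48 hours in 96-well plates. At the TGI there is no net growth.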

Legend:
Assay in all cases: NCI-60 cell line screen, 48 h
[1] = test system: COLO 205 colon
[2] = test system: CCRF-CEM leukemia
[3] = test system: SF-539 CNS
[4] = test system: ACHN renal
[5] = test system: MOLT-4 leukemia
[6] = test system: A498 renal
[7] = test system: NCI-H226 lung
[8] = test system: RXF 393 renal
[9] = test system: 786-0 renal
[10] = test system: DMS 114 small cell lung
[11] = test system: OVCAR-8 ovarian
[12] = test system: HCT-15 colon
[13] = test system: MALME-3M melanoma
[14] = test system: SF-268 CNS
[15] = test system: HOP-92 NSCLC
[16] = test system: M14 melanoma
[17] = test system: SF-295 CNS
[18] = test system: A549 NSCLC
[19] = test system: LXFL 529 NSCLC
[20] = test system: HT29 colon
[21] = test system: HOP-62 NSCLC
[22] = test system: EKVX NSCLC
[23] = test system: UO-31 renal
[24] = test system: K-562 leukemia
[25] = test system: SNB-78 CNS
[26] = test system: UACC-257 melanoma
[27] = test system: TK-10 renal
[28] = test system: SK-MEL-2 melanoma
[29] = test system: HCT-116 colon
[30] = test system: SW-620 colon
[31] = test system: CAKI-1 renal
[32] = test system: UACC-62 melanoma
[33] = test system: KM20L2 colon
[34] = test system: HOP-18 NSCLC
[35] = test system: SN12C renal
[36] = test system: DLD-1 colon
[37] = test system: NCI-H460 lung
[38] = test system: SNB-19 CNS
[39] = test system: XF 498 CNS
[40] = test system: HCC-2998 colon
[41] = test system: OVCAR-3 ovarian
[42] = test system: KM12 colon
[43] = test system: LOX IMVI melanoma
[44] = test system: SK-MEL-28 melanoma
[45] = test system: SK-OV-3 ovarian
[46] = test system: OVCAR-5 ovarian
[47] = test system: HL-60(TB) leukemia
[48] = test system: IGROV1 ovarian
[49] = test system: RPMI-8226 leukemia
[50] = test system: SK-MEL-5 melanoma
[51] = test system: SNB-75 CNS
[52] = test system: OVCAR-4 ovarian
[53] = test system: M19-MEL melanoma
[54] = test system: NCI-H23 lung

## CC(=O)OC1CC2C(C)(C)C(=O)C=C[C@]2(C)C2CCC3(C)C(=CC(=O)C3c3ccoc3)[C@]12C (some centres undefined)
[1]
  TGI: 34.6 µM
[2]
  TGI: 30 µM
[3]
  TGI: 31.2 µM
[4]
  TGI: 40.1 µM
[5]
  TGI: 34 µM
[6]
  TGI: 33.9 µM
[7]
  TGI: 35.6 µM
[8]
  TGI: 10.1 µM
[9]
  TGI: 31.1 µM
[10]
  TGI: 27.6 µM
[11]
  TGI: 41 µM
[12]
  TGI: 26.1 µM
[13]
  TGI: 34.4 µM
[14]
  TGI: 33.1 µM
[15]
  TGI: 45.6 µM
[16]
  TGI: 61.7 µM
[17]
  TGI: 28.7 µM
[18]
  TGI: 41 µM
[19]
  TGI: 74.2 µM
[20]
  TGI: 32.1 µM
[21]
  TGI: 31.1 µM
[22]
  TGI: 37.7 µM
[23]
  TGI: 33 µM
[24]
  TGI: > 100 µM
[25]
  TGI: > 100 µM
[26]
  TGI: 48.2 µM
[27]
  TGI: 30 µM
[28]
  TGI: 34.5 µM
[29]
  TGI: 24.9 µM
[30]
  TGI: 26 µM
[31]
  TGI: > 100 µM
[32]
  TGI: 31.6 µM
[33]
  TGI: 28.2 µM
[34]
  TGI: 33.8 µM
[35]
  TGI: 32.5 µM
[36]
  TGI: 31 µM
[37]
  TGI: 34.1 µM
[38]
  TGI: 29.2 µM
[39]
  TGI: 42.8 µM
[40]
  TGI: 26 µM
[41]
  TGI: 25.8 µM
[42]
  TGI: 35.5 µM
[43]
  TGI: 31.4 µM
[44]
  TGI: 32.6 µM
[45]
  TGI: 35.6 µM
[46]
  TGI: 37.8 µM
[47]
  TGI: 34.1 µM
[48]
  TGI: 57.9 µM
[49]
  TGI: 36.1 µM
[50]
  TGI: 26.4 µM
[51]
  TGI: 36.1 µM
[52]
  TGI: 50.5 µM
[53]
  TGI: 33.5 µM
[54]
  TGI: 29.5 µM
